Source: US20090281047A1, “Compositions And Methods For Immunotherapy” (priority 2008, published 2009)

What was measured:
[1] = test system: breast cancer; assay: Treatment of breast cancer patients (Example IX); type: in vivo, human
From the text: Forty-three of the patients in the study of Example VIII suffered from breast cancer. These forty-three were divided into four groups. One group of 7 was given the glycome solution of Example II; a group of five was given the glycome solution of Example II in combination with chemotherapy; a group of thirteen was given the glycome solution of Example II in combination with chemotherapy and Poly-MVA® (AMARC Enterprises, Inc., Spring Valley, Calif.) (blend of Palladium and alpha-lipoic Acid, Vitamins B1, B2 and B12, Formylmethionine, Acetyl Cystiene, and trace amounts of Molybdinum, Rhodium, and Ruthenium); and the remaining eighteen were given a combination of the glycome solution of Example II and Poly-MVA® (AMARC Enterprises, Inc., Spring Valley, Calif.) without chemotherapy. Patients receiving the glycome solution were given a solution containing three grams of the powder isolated in Example I a day intravenously for five days then six capsules containing a total of 3 g/day of para-hydroxyl-benzaldehyde-O-B-D-allopyranoside formulated according to Example IV and two capsules containing the formulation of Example V orally for two days, repeating for four weeks. They were then given six capsules containing a total of 3 g/day of para-hydroxyl-benzaldehyde-O-B-D-allopyranoside formulated according to Example IV and two capsules containing the formulation of Example V orally per day until they entered remission.

[2] = test system: varying malignancies including neuroendocrine cancer, nasal adenocarcinoma, brain stem tumor, thymoma, and histiocytoma; assay: Treatment of dogs with varying malignancies (Example X); type: in vivo, dog; settings: eight dogs; IV five days a week for three weeks, then 1 to 2 grams methacrylate coated para-hydroxyl-benzaldehyde-O-B-D-allopyranoside in food; some also acupuncture/alkaline water
Description: Eight dogs weighing between 60 and 80 pounds with varying malignancies including neuroendocrine cancer, nasal adenocarcinoma, brain stem tumor, thymoma, and histiocytoma were treated with 6 cc of the DMSO solution of Example II diluted in 200 cc saline administered intravenously five days a week for three weeks. The dogs were then given 1 to 2 grams of methacrylate coated para-hydroxyl-benzaldehyde-O-B-D-allopyranoside in their food seven days a week until they entered remission. Six of the dogs also received acupuncture and one received acupuncture and alkaline water.

[3] = test system: candadiasis; assay: Treatment of candadiasis (Example XIV); type: in vivo, human; settings: 25 individuals; 200 mg in 1 liter alkaline water pH 11 twice daily for three months
Description: 25 individuals with candadiasis were administered a solution comprising, 1 liter of Alkaline water prepared as described in Example XI and diluted with non-chlorinated drinking water to a pH of 11 mixed with 200 mg of columbianitin extracted from Lomatium Disectum, twice daily for three months.

[4] = test system: Epstein Barr virus; assay: Treatment of Epstein Barr (Example XIII); type: in vivo, human; settings: thirty five individuals; 200 mg in 1 liter alkaline water pH 11 twice daily for three months
Description: Thirty five individuals with Epstein Barr virus were administered a solution comprising, 1 liter of Alkaline water prepared as described in Example XI and diluted with non-chlorinated drinking water to a pH of 11 mixed with 200 mg of columbianitin extracted from Lomatium Disectum, twice daily for three months.

[5] = test system: Methicillin Resistant Staphylococcus aureus (MRSA); assay: Treatment of MRSA (Example XV); type: in vivo, human; settings: three individuals; 200 mg in 1 liter alkaline water pH 11 twice daily for three months
Description: Three individuals suffering from MRSA were administered a solution comprising, 1 liter of Alkaline water prepared as described in Example XI and diluted with non-chlorinated drinking water to a pH of 11 mixed with 200 mg of columbianitin extracted from Lomatium Disectum, twice daily for three months.

[6] = test system: Lyme Disease; assay: Treatment of Lyme Disease (Example XII); type: in vivo, human; settings: five individuals; 200 mg in 1 liter alkaline water pH 11 twice daily for three months
Description: Five individuals positive for Lyme Disease were administered a solution comprising 1 liter of Alkaline water prepared as described in Example XI and diluted with non-chlorinated drinking water to a pH of 11 mixed with 200 mg of columbianitin extracted from Lomatium Disectum twice daily for three months.

SMILES	breast cancer patients survived for at least two years, overall ([1]; all forty-three breast cancer patients, all four treatment groups) [%]	breast cancer patients survived ([1]; group of eighteen, combination with Poly-MVA without chemotherapy)	breast cancer patients survived ([1]; group of five, combination with chemotherapy) [%]	tumor response [2]	skin infections at the end of three months [3]	vaginal infections at the end of three months [3]	Epstein Barr virus test at the end of three months [4]	clinical outcome at the end of three months [5]	Lyme disease test at the end of three months [6]
O=Cc1ccc(O[C@@H]2O[C@H](CO)[C@@H](O)[C@@H](O)[C@H]2O)cc1 [para-hydroxyl-benzaldehyde-O-B-D-allopyranoside]	79	seventy-eight	100	significant reduction or elimination of the tumor	–	–	–	–	–
CC(C)(O)[C@@H]1Cc2c(ccc3ccc(=O)oc23)O1 [columbianitin]	–	–	–	–	resolved	remained the same	all thirty-five individuals tested negative	all three individuals improved considerably	all five individuals tested negative
